Patent US10947215B2, “Heteroaryl compounds and their use as therapeutic drugs” (Dong-A Socio Holdings Co., Ltd., priority 2015, dated 2021)

Legend:
[1] = test system: Ba/F3-CDM cells (Ba/F3 transfected with CD8-MerTK); assay: In cell MER kinase assay, Ba/F3-CDM cell proliferation without IL-3 (Celltiter-Glo, GI50); type: cell-based, murine; details: 48 hours, read-out: Cell growth inhibition (GI50)
Summary of the method: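 Ba/F3 cells expressing CD8-MerTK were grown without IL-3, so that proliferation depends on MerTK. Cells were pre-incubated 24 h, then exposed to compound for 48 h. Viability was read by CellTiter-Glo, with IL-3-supplemented Ba/F3 run in parallel as a nonspecific cytotoxicity control, and GI50 was derived.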

[2] = biological target: human c-MER catalytic domain (Homo sapiens (Human), UniProt Q12866); assay: LanthaScreen TR-FRET biochemical kinase assay (c-MER); details: read-out: Mer TK inhibition (IC50), 10 uM ATP
human c-MER catalytic domain, sequence (Q12866 587-858): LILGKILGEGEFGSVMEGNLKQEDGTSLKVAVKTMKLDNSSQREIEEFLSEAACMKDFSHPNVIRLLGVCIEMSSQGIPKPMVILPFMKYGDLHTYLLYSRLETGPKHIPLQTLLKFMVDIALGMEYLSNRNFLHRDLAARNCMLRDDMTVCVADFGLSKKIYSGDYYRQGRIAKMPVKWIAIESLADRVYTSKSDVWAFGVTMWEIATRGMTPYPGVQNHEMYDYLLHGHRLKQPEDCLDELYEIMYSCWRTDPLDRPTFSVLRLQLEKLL

Row | Compound | GI50 [1] [nM] | IC50 [2] [nM]
1 | C[C@@H]1CN(Cc2ccc(-c3ccc(CO[C@H]4CCC[C@@H]4NC(=O)c4cc(-c5cnn(C)c5)cnc4N)cc3)cc2)C[C@H](C)N1C [Example 190, 2-amino-5-(1-methyl-1H-pyrazol-4-yl)-N-((1S,2S)-2-((4′-((cis-3,4,5-trimethylpiperazin-1-yl)methyl)-[1,1′-biphenyl]-4-yl)methoxy)cyclopentyl)-nicotinamide] | < 100 | < 10
2 | C[C@@H]1CN(C)[C@@H](C)CN1Cc1ccc(-c2ccc(CO[C@H]3CCC[C@@H]3NC(=O)c3cc(-c4cnn(C)c4)cnc3N)cc2)cc1 [Example 192, 2-amino-5-(1-methyl-1H-pyrazol-4-yl)-N-((1S,2S)-2-((4′-(((2R,5S)-2,4,5-trimethylpiperazin-1-yl)methyl)-[1,1′-biphenyl]-4-yl)methoxy)cyclopentyl)nicotinamide] | < 100 | < 10
3 | CCc1cc(CO[C@H]2CNC[C@@H]2NC(=O)c2cc(-c3ccc(CO)cc3)cnc2N)ccc1C [Example 389, 2-amino-N-((3S,4S)-4-((3-ethyl-4-methylbenzyl)oxy)pyrrolidin-3-yl)-5-(4-(hydroxymethyl)phenyl)nicotinamide] | 100 to 500 | < 10
4 | Cc1ccc(CO[C@H]2CNC[C@@H]2NC(=O)c2cc(-c3cnn(C)c3)cnc2N)cc1 [Example 415, 2-amino-5-(1-methyl-1H-pyrazol-4-yl)-N-((3S,4S)-4-((4-methylbenzyl)oxy)pyrrolidin-3-yl)nicotinamide] | > 1000 | –
5 | CCc1cc(CO[C@H]2CNC[C@@H]2NC(=O)c2cc(-c3ccc(C(=O)NC4CCN(C)CC4)cc3)cnc2N)ccc1C [Example 419, 2-amino-N-((3S,4S)-4-((3-ethyl-4-methylbenzyl)oxy)pyrrolidin-3-yl)-5-(4-((1-methylpiperidin-4-yl)carbamoyl)phenyl)nicotinamide] | > 1000 | –
6 | CN1CCN(Cc2ccc(-c3ccc(CO[C@H]4CN(C)C[C@@H]4NC(=O)c4cc(-c5cnn(C)c5)cnc4N)cc3)cc2C(F)(F)F)CC1 [Example 437, 2-amino-5-(1-methyl-1H-pyrazol-4-yl)-N-((3S,4S)-1-methyl-4-((4′-((4-methylpiperazin-1-yl)methyl)-3′-(trifluoromethyl)-[1,1′-biphenyl]-4-yl)-methoxy)pyrrolidin-3-yl)nicotinamide] | < 100 | –
7 | Cn1cc(-c2cnc(N)c(C(=O)N[C@H]3CNC[C@@H]3OCc3ccc(-c4ccc(C(C)(C)N5CCN(CCO)CC5)cc4)cc3)c2)cn1 [Example 440] | > 1000 | –
8 | CC(c1ccc(-c2ccc(CO[C@H]3CNC[C@@H]3NC(=O)c3cc(-c4cnn(C)c4)cnc3N)cc2)cc1)N1CCN(CCO)CC1 (stereo partly drawn) [Example 442, 2-amino-N-((3S,4S)-4-((4′-(1-(4-(2-hydroxyethyl)piperazin-1-yl)ethyl)-[1,1′-biphenyl]-4-yl)methoxy)pyrrolidin-3-yl)-5-(1-methyl-1H-pyrazol-4-yl)nicotinamide] | > 1000 | –
9 | CC(c1ccc(-c2ccc(CO[C@H]3CN(C)C[C@@H]3NC(=O)c3cc(-c4cnn(C)c4)cnc3N)cc2)cc1)N1CCN(CCO)CC1 (stereo partly drawn) [Example 443, 2-amino-N-((3S,4S)-4-((4′-(1-(4-(2-hydroxyethyl)piperazin-1-yl)ethyl)-[1,1′-biphenyl]-4-yl)methoxy)-1-methylpyrrolidin-3-yl)-5-(1-methyl-1H-pyrazol-4-yl)nicotinamide] | < 100 | –
10 | Cn1cc(-c2cnc(N)c(C(=O)N[C@H]3CNC[C@@H]3OCc3ccc(-c4ccc(CN5CCN(CCO)CC5)c(C(F)(F)F)c4)cc3)c2)cn1 [Example 444, 2-amino-N-((3S,4S)-4-((4′-((4-(2-hydroxyethyl)piperazin-1-vi)-methyl)-3′-(trifluoromethyl)-[1,1′-biphenyl]-4-yl)methoxy)pyrrolidin-3-yl)-5-(1-methyl-1H-pyrazol-4-yl)nicotinamide] | > 1000 | –
11 | CN1C[C@H](NC(=O)c2cc(-c3cnn(C)c3)cnc2N)[C@@H](OCc2ccc(-c3ccc(CN4CCN(CCO)CC4)c(C(F)(F)F)c3)cc2)C1 [Example 445, 2-amino-N-((3S,4S)-4-((4′-((4-(2-hydroxyethyl)piperazin-1-vi)-methyl)-3′-(trifluoromethyl)-[1,1′-biphenyl]-4-yl)methoxy)-1-methylpyrrolidin-3-yl)-5-(1-methyl-1H-pyrazol-4-yl)nicotinamide] | < 100 | –
12 | Cn1cc(-c2cnc(N)c(C(=O)N[C@H]3CNC[C@@H]3OCc3ccc(-c4ccc(CN5CCN(CCO)CC5)cc4)cc3)c2)cn1 [Example 446, 2-amino-N-((3S,4S)-4-((4′-((4-(2-hydroxyethyl)piperazin-1-yl)-methyl)-[1,1′-biphenyl]-4-yl)methoxy)pyrrolidin-3-yl)-5-(1-methyl-1H-pyrazol-4-yl)-nicotinamide] | > 1000 | –
13 | CN1C[C@H](NC(=O)c2cc(-c3cnn(C)c3)cnc2N)[C@@H](OCc2ccc(-c3ccc(CN4CCN(CCO)CC4)cc3)cc2)C1 [Example 447, 2-amino-N-((3S,4S)-4-((4′-((4-(2-hydroxyethyl)piperazin-1-yl)-methyl)-[1,1′-biphenyl]-4-yl)methoxy)-1-methylpyrrolidin-3-yl)-5-(1-methyl-1H-pyrazol-4-yl)nicotinamide] | < 100 | –
14 | CN1CCN(Cc2ccc(-c3ccc(CO[C@H]4COC[C@@H]4NC(=O)c4cc(-c5cnn(C)c5)cnc4N)cc3)cc2)CC1 [Example 448, 2-amino-5-(1-methyl-1H-pyrazol-4-yl)-N-((3S,4R)-4-((4′-((4-methylpiperazin-1-yl)methyl)-[1,1′-biphenyl]-4-yl)methoxy)tetrahydrofuran-3-yl)-nicotinamide] | < 100 | –
15 | CN1CCN(Cc2ccc(-c3ccc(CO[C@H]4COC[C@@H]4NC(=O)c4cc(-c5cnn(C)c5)cnc4N)cc3)cc2C(F)(F)F)CC1 [Example 449, 2-amino-5-(1-methyl-1H-pyrazol-4-yl)-N-((3S,4R)-4-((4′-((4-methylpiperazin-1-yl)methyl)-3′-(trifluoromethyl)-[1,1′-biphenyl]-4-yl)methoxy)-tetrahydrofuran-3-yl)nicotinamide] | < 100 | –
16 | CN1CCN(C(C)(C)c2ccc(-c3ccc(CO[C@H]4COC[C@@H]4NC(=O)c4cc(-c5cnn(C)c5)cnc4N)cc3)cc2)CC1 [Example 450, 2-amino-5-(1-methyl-1H-pyrazol-4-yl)-N-((3S,4R)-4-((4′-(2-(4-methylpiperazin-1-yl)propan-2-yl)-[1,1′-biphenyl]-4-yl)methoxy)tetrahydrofuran-3-yl)nicotinamide] | < 100 | –
17 | Cn1cc(-c2cnc(N)c(C(=O)N[C@H]3COC[C@@H]3OCc3ccc(-c4ccc(CN5CCN(CCO)CC5)cc4)cc3)c2)cn1 [Example 451, 2-amino-N-((3S,4R)-4-((4′-((4-(2-hydroxyethyl)piperazin-1-yl)methyl)-[1,1′-biphenyl]-4-yl)methoxy)tetrahydrofuran-3-yl)-5-(1-methyl-1H-pyrazol-4-yl)nicotinamide] | < 100 | –
18 | Cn1cc(-c2cnc(N)c(C(=O)N[C@H]3COC[C@@H]3OCc3ccc(-c4ccc(CN5CCN(CCO)CC5)c(C(F)(F)F)c4)cc3)c2)cn1 [Example 452] | < 100 | –
